# Columns and labels:
# Assay type in all cases: in vivo
# Scirpus juncoides = assay: Test Example 1: herbicidal activity, application before weed generation in submerged conditions (symbol B); conditions: application herbicide amount 320 g/ha
# Procedure, shortened: (§1)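 Mixed weed seeds sown in alluvial soil under 4 cm of water, with rice seedlings at the 2.5-leaf stage added. Same-day treatment: emulsion diluted to a set herbicide amount onto the water. Three weeks at 25–30 °C, then graded on a six-step scale.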
# Monochoria vaginalis = assay: Test Example 1: herbicidal activity, application before weed generation in submerged conditions (symbol C); conditions: application herbicide amount 320 g/ha
# Procedure, shortened: as §1
# [1] = test system: Echinochloa crus-galli var. crus-galli; assay: Test Example 3: herbicidal effect by foliage application, Wagner pot (symbol H); conditions: application herbicide amount 320 g/ha
# Procedure, shortened: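 In a shallow-flooded alluvial soil system held at 25–30 °C, plants including rice grew for 14 days and were then sprayed over the foliage with emulsion diluted to a fixed herbicide amount. Visual rating followed at 3 weeks.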
# Setaria viridis [2] = assay: Test Example 4: herbicidal effect by soil treatment (symbol G); conditions: application herbicide amount 320 g/ha
# Procedure, shortened: (§2)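 Seeds were sown in sterilized diluvial soil, covered with about 1.5 cm of soil, and the soil surface was sprayed with a water-diluted emulsion of the compound at a predetermined rate. Plants grew in a greenhouse at 25° C. to 30° C.; effects were scored visually 3 weeks after application.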
# Avena fatua = assay: Test Example 4: herbicidal effect by soil treatment (symbol I); conditions: application herbicide amount 320 g/ha
# Procedure, shortened: as §2
# Lolium multiflorum Lam. = assay: Test Example 4: herbicidal effect by soil treatment (symbol K); conditions: application herbicide amount 320 g/ha
# Procedure, shortened: as §2
# Apera spica-venti = assay: Test Example 4: herbicidal effect by soil treatment (symbol L); conditions: application herbicide amount 320 g/ha
# Procedure, shortened: as §2
# Amaranthus retroflexus [3] = assay: Test Example 4: herbicidal effect by soil treatment (symbol N); conditions: application herbicide amount 320 g/ha
# Procedure, shortened: as §2
# soybean [4] = assay: Test Example 4: effect on crop by soil treatment (symbol d); conditions: application herbicide amount 320 g/ha
# Procedure, shortened: (§3)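 Crop seed is sown in spots together with several weed species in a box of sterilized diluvial soil. It is covered by about 1.5 cm of soil and kept in a greenhouse held between 25° C. and 30° C.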
# wheat = assay: Test Example 4: effect on crop by soil treatment (symbol e); conditions: application herbicide amount 320 g/ha
# Procedure, shortened: as §3
# beet = assay: Test Example 4: effect on crop by soil treatment (symbol f); conditions: application herbicide amount 320 g/ha
# Procedure, shortened: as §3
# Setaria viridis [5] = assay: Test Example 5: herbicidal effect by foliage application, plastic box (symbol G); conditions: 320 g/ha, 3 weeks after application
# Procedure, shortened: (§4)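 Leaf-applied emulsion, water-diluted to a preset herbicide dose, on two-week-old seedlings raised in a 25° C. to 30° C. greenhouse; injury rated at 3 weeks using earlier criteria.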
# [6] = test system: Echinochloa crus-galli var. crus-galli; assay: Test Example 5: herbicidal effect by foliage application, plastic box (symbol H); conditions: 320 g/ha, 3 weeks after application
# Procedure, shortened: as §4
# Abutilon theophrasti = assay: Test Example 5: herbicidal effect by foliage application, plastic box (symbol M); conditions: 320 g/ha, 3 weeks after application
# Procedure, shortened: as §4
# Amaranthus retroflexus [7] = assay: Test Example 5: herbicidal effect by foliage application, plastic box (symbol N); conditions: 320 g/ha, 3 weeks after application
# Procedure, shortened: as §4
# Chenopodium album = assay: Test Example 5: herbicidal effect by foliage application, plastic box (symbol O); conditions: 320 g/ha, 3 weeks after application
# Procedure, shortened: as §4
# Galium spurium = assay: Test Example 5: herbicidal effect by foliage application, plastic box (symbol Q); conditions: 320 g/ha, 3 weeks after application
# Procedure, shortened: as §4
# soybean [8] = assay: Test Example 5: effect on crop by foliage application, plastic box (symbol d); conditions: 320 g/ha, 3 weeks after application
# Procedure, shortened: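 Foliage-application test plants come from spot sowing in sterilized diluvial soil under a soil layer of about 1.5 cm, grown at 25° C. to 30° C. in a greenhouse.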
Compound,"Herbicidal effect grade, B: Scirpus juncoides (Scirpus juncoides)","Herbicidal effect grade, C: Monochoria vaginalis (Monochoria vaginalis)","herbicidal effect on H (Echinochloa crus-galli var. crus-galli), grade 0-5 [1]","G: Setaria viridis, herbicidal effect grade (Setaria viridis [2])","I: Avena fatua, herbicidal effect grade (Avena fatua)","K: Lolium multiflorum Lam., herbicidal effect grade (Lolium multiflorum Lam.)","L: Apera spica-venti, herbicidal effect grade (Apera spica-venti)","N: Amaranthus retroflexus, herbicidal effect grade (Amaranthus retroflexus [3])","d: soybean, effect on crop grade (soybean [4])","e: wheat, effect on crop grade (wheat)","f: beet, effect on crop grade (beet)","G: Setaria viridis, herbicidal effect grade (Setaria viridis [5])","H: Echinochloa crus-galli var. crus-galli, herbicidal effect grade [6]","M: Abutilon theophrasti, herbicidal effect grade (Abutilon theophrasti)","N: Amaranthus retroflexus, herbicidal effect grade (Amaranthus retroflexus [7])","O: Chenopodium album, herbicidal effect grade (Chenopodium album)","Q: Galium spurium, herbicidal effect grade (Galium spurium)","d: soybean, effect on crop grade (soybean [8])",other results
CCc1cc(Br)cc(C)c1C1=C(O)CC(C(C(=O)OC)C(C)=NOC)C1=O (centres unmarked) [6-002],0 (Herbicidal ratio of 5% or lower (almost no effect)),0 (Herbicidal ratio of 5% or lower (almost no effect)),4 (Herbicidal ratio of 70% or higher and lower than 90%),3 (Herbicidal ratio of 40% or higher and lower than 70%),0 (Herbicidal ratio of 5% or lower (almost no effect)),5 (Herbicidal ratio of 90% or more (almost completely withered)),4 (Herbicidal ratio of 70% or higher and lower than 90%),0 (Herbicidal ratio of 5% or lower (almost no effect)),0 (Herbicidal ratio of 5% or lower (almost no effect)),0 (Herbicidal ratio of 5% or lower (almost no effect)),0 (Herbicidal ratio of 5% or lower (almost no effect)),5 (Herbicidal ratio of 90% or more (almost completely withered)),5 (Herbicidal ratio of 90% or more (almost completely withered)),1 (Herbicidal ratio of 5% or higher and lower than 20%),0 (Herbicidal ratio of 5% or lower (almost no effect)),0 (Herbicidal ratio of 5% or lower (almost no effect)),0 (Herbicidal ratio of 5% or lower (almost no effect)),0 (Herbicidal ratio of 5% or lower (almost no effect)),–
CCC(CCC1CC(O)=C(c2c(C)cc(C)cc2C)C1=O)=NOC (mixture of isomers) [4-001],0 (Herbicidal ratio of 5% or lower (almost no effect)),0 (Herbicidal ratio of 5% or lower (almost no effect)),2 (Herbicidal ratio of 20% or higher and lower than 40%),0 (Herbicidal ratio of 5% or lower (almost no effect)),0 (Herbicidal ratio of 5% or lower (almost no effect)),5 (Herbicidal ratio of 90% or more (almost completely withered)),5 (Herbicidal ratio of 90% or more (almost completely withered)),0 (Herbicidal ratio of 5% or lower (almost no effect)),0 (Herbicidal ratio of 5% or lower (almost no effect)),0 (Herbicidal ratio of 5% or lower (almost no effect)),0 (Herbicidal ratio of 5% or lower (almost no effect)),1 (Herbicidal ratio of 5% or higher and lower than 20%),2 (Herbicidal ratio of 20% or higher and lower than 40%),0 (Herbicidal ratio of 5% or lower (almost no effect)),0 (Herbicidal ratio of 5% or lower (almost no effect)),0 (Herbicidal ratio of 5% or lower (almost no effect)),0 (Herbicidal ratio of 5% or lower (almost no effect)),0 (Herbicidal ratio of 5% or lower (almost no effect)),–
CON=C(C)CC1CC(OCC(=O)OC)=C(c2c(C)cc(C)cc2C)C1=O (centres unmarked) [1-012],0 (Herbicidal ratio of 5% or lower (almost no effect)),0 (Herbicidal ratio of 5% or lower (almost no effect)),0 (Herbicidal ratio of 5% or lower (almost no effect)),–,–,–,–,–,–,–,–,0 (Herbicidal ratio of 5% or lower (almost no effect)),0 (Herbicidal ratio of 5% or lower (almost no effect)),0 (Herbicidal ratio of 5% or lower (almost no effect)),0 (Herbicidal ratio of 5% or lower (almost no effect)),0 (Herbicidal ratio of 5% or lower (almost no effect)),0 (Herbicidal ratio of 5% or lower (almost no effect)),0 (Herbicidal ratio of 5% or lower (almost no effect)),G (Setaria viridis) herbicidal effect grade (Setaria viridis [2]): 0 (Herbicidal ratio of 5% or lower (almost no effect)); I (Avena fatua) herbicidal effect grade (Avena fatua): 0 (Herbicidal ratio of 5% or lower (almost no effect)); K (Lolium multiflorum Lam.) herbicidal effect grade (Lolium multiflorum Lam.): 0 (Herbicidal ratio of 5% or lower (almost no effect)); L (Apera spica-venti) herbicidal effect grade (Apera spica-venti): 0 (Herbicidal ratio of 5% or lower (almost no effect)); N (Amaranthus retroflexus) herbicidal effect grade (Amaranthus retroflexus [3]): 0 (Herbicidal ratio of 5% or lower (almost no effect)); d (soybean) effect on crop grade (soybean [4]): 0 (Herbicidal ratio of 5% or lower (almost no effect)); e (wheat) effect on crop grade (wheat): 0 (Herbicidal ratio of 5% or lower (almost no effect)); f (beet) effect on crop grade (beet): 0 (Herbicidal ratio of 5% or lower (almost no effect))
CCC(=O)CCC1CC(OC)=C(c2c(C)cc(C)cc2C)C1=O (centres unmarked) [5-002],0 (Herbicidal ratio of 5% or lower (almost no effect)),0 (Herbicidal ratio of 5% or lower (almost no effect)),0 (Herbicidal ratio of 5% or lower (almost no effect)),0 (Herbicidal ratio of 5% or lower (almost no effect)),0 (Herbicidal ratio of 5% or lower (almost no effect)),0 (Herbicidal ratio of 5% or lower (almost no effect)),0 (Herbicidal ratio of 5% or lower (almost no effect)),0 (Herbicidal ratio of 5% or lower (almost no effect)),0 (Herbicidal ratio of 5% or lower (almost no effect)),0 (Herbicidal ratio of 5% or lower (almost no effect)),0 (Herbicidal ratio of 5% or lower (almost no effect)),0 (Herbicidal ratio of 5% or lower (almost no effect)),0 (Herbicidal ratio of 5% or lower (almost no effect)),0 (Herbicidal ratio of 5% or lower (almost no effect)),0 (Herbicidal ratio of 5% or lower (almost no effect)),0 (Herbicidal ratio of 5% or lower (almost no effect)),0 (Herbicidal ratio of 5% or lower (almost no effect)),0 (Herbicidal ratio of 5% or lower (almost no effect)),–
CON=C(C)CC1CC(O)=C(c2c(C)cc(-n3cc(Cl)cn3)cc2C)C1=O (mixture of isomers) [6-004],5 (Herbicidal ratio of 90% or more (almost completely withered)),2 (Herbicidal ratio of 20% or higher and lower than 40%),5 (Herbicidal ratio of 90% or more (almost completely withered)),5 (Herbicidal ratio of 90% or more (almost completely withered)),4 (Herbicidal ratio of 70% or higher and lower than 90%),5 (Herbicidal ratio of 90% or more (almost completely withered)),5 (Herbicidal ratio of 90% or more (almost completely withered)),4 (Herbicidal ratio of 70% or higher and lower than 90%),0 (Herbicidal ratio of 5% or lower (almost no effect)),0 (Herbicidal ratio of 5% or lower (almost no effect)),–,5 (Herbicidal ratio of 90% or more (almost completely withered)),5 (Herbicidal ratio of 90% or more (almost completely withered)),3 (Herbicidal ratio of 40% or higher and lower than 70%),2 (Herbicidal ratio of 20% or higher and lower than 40%),3 (Herbicidal ratio of 40% or higher and lower than 70%),3 (Herbicidal ratio of 40% or higher and lower than 70%),1 (Herbicidal ratio of 5% or higher and lower than 20%),–

# Source: patent publication US11000033B2, “Ketone or oxime compound, and herbicide” (NISSAN CHEMICAL CORPORATION, priority 2014, dated 2021)
